Data as given in the NIST ThermoML archive (doi:10.1021/je050005h).
± gives the expanded uncertainty stated by the source.

How the values were obtained:
[1] = 101 kPa, Liquid
[2] = xn = mol fraction of the nth substance listed; settings: 101 kPa, Liquid

C1CCNCC1 [piperidine]
[1]
Settings | kinematic viscosity [m2/s] | mass density [kg/m3]
293.15 K | 1.79e-06 ± 8.3e-08 | 863.81 ± 2.7
303.15 K | 1.49e-06 ± 7e-08 | 854.5 ± 2.8
313.15 K | 1.25e-06 ± 6e-08 | 845.08 ± 2.9
323.15 K | 1.06e-06 ± 5.2e-08 | 835.56 ± 3.1

C1CCNCC1 [piperidine] + O
[2]
Settings | kinematic viscosity, 293.15 K [m2/s] | kinematic viscosity, 303.15 K [m2/s] | kinematic viscosity, 313.15 K [m2/s] | kinematic viscosity, 323.15 K [m2/s] | mass density, 293.15 K [kg/m3] | mass density, 303.15 K [kg/m3] | mass density, 313.15 K [kg/m3] | mass density, 323.15 K [kg/m3]
x1 = 0.0055 | 1.11e-06 ± 5.4e-08 | 8.82e-07 ± 4.4e-08 | 7.18e-07 ± 3.7e-08 | 5.98e-07 ± 3.2e-08 | 997.07 ± 1 | 994.34 ± 1.1 | 990.68 ± 1.1 | 986.17 ± 1.2
x1 = 0.011 | 1.21e-06 ± 5.8e-08 | 9.53e-07 ± 4.7e-08 | 7.72e-07 ± 4e-08 | 6.36e-07 ± 3.4e-08 | 995.89 ± 1.1 | 992.89 ± 1.1 | 989.03 ± 1.2 | 984.42 ± 1.2
x1 = 0.028 | 1.5e-06 ± 7.1e-08 | 1.2e-06 ± 5.8e-08 | 9.42e-07 ± 4.7e-08 | 8.12e-07 ± 4.1e-08 | 992.43 ± 1.1 | 987.87 ± 1.2 | 982.66 ± 1.2 | 976.92 ± 1.3
x1 = 0.0573 | 2.2e-06 ± 1e-07 | 1.74e-06 ± 8.1e-08 | 1.33e-06 ± 6.3e-08 | 1.07e-06 ± 5.2e-08 | 985.56 ± 1.2 | 979.56 ± 1.3 | 973.25 ± 1.4 | 966.6 ± 1.4
x1 = 0.0986 | 3.55e-06 ± 1.6e-07 | 2.55e-06 ± 1.2e-07 | 1.88e-06 ± 8.7e-08 | 1.47e-06 ± 7e-08 | 974.58 ± 1.3 | 967.57 ± 1.4 | 960.35 ± 1.5 | 952.86 ± 1.6
x1 = 0.1795 | 5.94e-06 ± 2.5e-07 | 4.01e-06 ± 1.8e-07 | 2.81e-06 ± 1.3e-07 | 2.14e-06 ± 9.8e-08 | 955.67 ± 1.6 | 947.6 ± 1.7 | 939.32 ± 1.8 | 930.84 ± 1.9
x1 = 0.2672 | 7.62e-06 ± 3e-07 | 5.06e-06 ± 2.2e-07 | 3.48e-06 ± 1.5e-07 | 2.62e-06 ± 1.2e-07 | 940.18 ± 1.8 | 931.55 ± 1.9 | 922.71 ± 2 | 913.66 ± 2.1
x1 = 0.3536 | 8.02e-06 ± 3.1e-07 | 5.42e-06 ± 2.3e-07 | 3.71e-06 ± 1.6e-07 | 2.68e-06 ± 1.2e-07 | 927.85 ± 1.9 | 918.89 ± 2 | 909.73 ± 2.1 | 900.37 ± 2.2
x1 = 0.4387 | 7.04e-06 ± 2.8e-07 | 4.97e-06 ± 2.2e-07 | 3.49e-06 ± 1.5e-07 | 2.53e-06 ± 1.1e-07 | 917.5 ± 2 | 908 ± 2.1 | 899 ± 2.3 | 889 ± 2.4
x1 = 0.5225 | 6.09e-06 ± 2.5e-07 | 4.37e-06 ± 1.9e-07 | 3.1e-06 ± 1.4e-07 | 2.31e-06 ± 1.1e-07 | 906.51 ± 2.2 | 897.28 ± 2.3 | 887.84 ± 2.4 | 878.22 ± 2.5
x1 = 0.6458 | 4.49e-06 ± 2e-07 | 3.22e-06 ± 1.4e-07 | 2.33e-06 ± 1.1e-07 | 1.83e-06 ± 8.5e-08 | 892.99 ± 2.3 | 883.65 ± 2.5 | 874.16 ± 2.6 | 864.51 ± 2.7
x1 = 0.8454 | – | – | – | – | 875.08 ± 2.6 | 865.74 ± 2.7 | 856.27 ± 2.8 | 846.67 ± 2.9
x1 = 0.8455 | 2.6e-06 ± 1.2e-07 | 2e-06 ± 9.2e-08 | 1.62e-06 ± 7.6e-08 | 1.31e-06 ± 6.3e-08 | – | – | – | –
x1 = 1 | 1.79e-06 ± 8.3e-08 | 1.49e-06 ± 7e-08 | 1.25e-06 ± 6e-08 | 1.06e-06 ± 5.2e-08 | 863.81 ± 2.7 | 854.5 ± 2.8 | 845.08 ± 2.9 | 835.56 ± 3.1

C1CCNC1 [pyrrolidine]
[1]
Settings | kinematic viscosity [m2/s] | mass density [kg/m3]
293.15 K | 9.54e-07 ± 4.8e-08 | 859.87 ± 2.8
303.15 K | 8.27e-07 ± 4.2e-08 | 850.11 ± 2.9
313.15 K | 7.43e-07 ± 3.9e-08 | 840.24 ± 3
323.15 K | 6.41e-07 ± 3.4e-08 | 833.88 ± 3.1

C1CCNC1 [pyrrolidine] + O
[2]
Settings | kinematic viscosity, 293.15 K [m2/s] | kinematic viscosity, 303.15 K [m2/s] | kinematic viscosity, 313.15 K [m2/s] | kinematic viscosity, 323.15 K [m2/s] | mass density, 293.15 K [kg/m3] | mass density, 303.15 K [kg/m3] | mass density, 313.15 K [kg/m3] | mass density, 323.15 K [kg/m3]
x1 = 0.0057 | – | – | – | – | 997.13 ± 1 | 994.41 ± 1.1 | 990.83 ± 1.1 | 986.46 ± 1.2
x1 = 0.0101 | – | – | – | – | 996.33 ± 1.1 | 993.49 ± 1.1 | 989.78 ± 1.1 | 985.31 ± 1.2
x1 = 0.0221 | 1.44e-06 ± 6.8e-08 | 1.12e-06 ± 5.5e-08 | 8.8e-07 ± 4.4e-08 | 7.63e-07 ± 3.9e-08 | 994.47 ± 1.1 | 991.12 ± 1.1 | 986.92 ± 1.2 | 982 ± 1.2
x1 = 0.0678 | 2.47e-06 ± 1.1e-07 | 1.76e-06 ± 8.2e-08 | 1.34e-06 ± 6.4e-08 | 1.06e-06 ± 5.2e-08 | 989.46 ± 1.1 | 983.41 ± 1.2 | 976.91 ± 1.3 | 970.03 ± 1.4
x1 = 0.1158 | 3.52e-06 ± 1.6e-07 | 2.42e-06 ± 1.1e-07 | 1.77e-06 ± 8.2e-08 | 1.36e-06 ± 6.5e-08 | 980.95 ± 1.2 | 973.19 ± 1.3 | 965.26 ± 1.4 | 957.15 ± 1.5
x1 = 0.2076 | 4.53e-06 ± 2e-07 | 3.15e-06 ± 1.4e-07 | 2.27e-06 ± 1e-07 | 1.73e-06 ± 8.1e-08 | 962.31 ± 1.5 | 953.57 ± 1.6 | 944.65 ± 1.7 | 935.51 ± 1.8
x1 = 0.3039 | 4.78e-06 ± 2.1e-07 | 3.34e-06 ± 1.5e-07 | 2.46e-06 ± 1.1e-07 | 1.87e-06 ± 8.7e-08 | 943.39 ± 1.7 | 934.33 ± 1.8 | 925.06 ± 1.9 | 915.6 ± 2.1
x1 = 0.3958 | 4.36e-06 ± 1.9e-07 | 3.13e-06 ± 1.4e-07 | 2.31e-06 ± 1.1e-07 | 1.79e-06 ± 8.3e-08 | 928.64 ± 1.9 | 919.34 ± 2 | 909.83 ± 2.1 | 900.11 ± 2.3
x1 = 0.4834 | 3.64e-06 ± 1.6e-07 | 2.73e-06 ± 1.2e-07 | 2.08e-06 ± 9.6e-08 | 1.61e-06 ± 7.5e-08 | 917.04 ± 2 | 907.58 ± 2.2 | 897.92 ± 2.3 | 888.05 ± 2.4
x1 = 0.5671 | 2.99e-06 ± 1.3e-07 | 2.24e-06 ± 1e-07 | 1.76e-06 ± 8.2e-08 | 1.39e-06 ± 6.6e-08 | 906.1 ± 2.2 | 896 ± 2.3 | 886.2 ± 2.4 | 877.7 ± 2.5
x1 = 0.6858 | 2.13e-06 ± 9.8e-08 | 1.71e-06 ± 8e-08 | 1.37e-06 ± 6.5e-08 | 1.12e-06 ± 5.5e-08 | 893.17 ± 2.4 | 883.53 ± 2.5 | 873.7 ± 2.6 | 863.68 ± 2.7
x1 = 0.8675 | 1.31e-06 ± 6.3e-08 | 1.07e-06 ± 5.2e-08 | 9.13e-07 ± 4.6e-08 | 7.84e-07 ± 4e-08 | 872.39 ± 2.6 | 862.69 ± 2.7 | 852.81 ± 2.9 | 846.3 ± 2.9
x1 = 1 | 9.54e-07 ± 4.8e-08 | 8.27e-07 ± 4.2e-08 | 7.43e-07 ± 3.9e-08 | 6.41e-07 ± 3.4e-08 | 859.87 ± 2.8 | 850.11 ± 2.9 | 840.24 ± 3 | 833.88 ± 3.1

O [water] + C1CCNC1
[2], x2 = 0
Settings | kinematic viscosity [m2/s] | mass density [kg/m3]
293.15 K | 9.9e-07 ± 4.9e-08 | –
303.15 K | 8.1e-07 ± 4.1e-08 | –
313.15 K | 6.66e-07 ± 3.5e-08 | –
323.15 K | 5.61e-07 ± 3.1e-08 | 988.02 ± 1.1

O [water] + C1CCNCC1
[2], x2 = 0
Settings | kinematic viscosity [m2/s] | mass density [kg/m3]
293.15 K | 9.9e-07 ± 4.9e-08 | –
303.15 K | 8.1e-07 ± 4.1e-08 | –
313.15 K | 6.66e-07 ± 3.5e-08 | –
323.15 K | 5.61e-07 ± 3.1e-08 | 988.02 ± 1.1
